Measured values from ChEMBL document CHEMBL1201862, “PubChem BioAssay data set” (2004).
The source made the active and inactive calls.

Experiments:
[1] = blockers of HIV-1 ZM109 envelope-driven cell-cell fusion – HeLa effector, CEM target cells, luciferase, cherry-pick, dose response (AID 652058); type: functional, cell-based;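 further: luciferase signal from HIV-1 Env mediated cell-cell fusion of effector and target cells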
[2] = A Cell Based Secondary Assay To Explore Cytotoxicity of Compounds that Sensitize Mycobacterium Tuberculosis to Beta-Lactam Antibiotics.; type: functional
Cytochrome P450 2C19 = Cytochrome P450 2C19 (Homo sapiens, UniProt P33261); test: Cytochrome panel assay with activity outcomes. Panel member name: p450-cyp2c19 Compounds with AC50 equal or less than 10 uM are considered active; type: functional; conditions: read-out: AC50
Sequence of Cytochrome P450 2C19 (P33261 whole entry): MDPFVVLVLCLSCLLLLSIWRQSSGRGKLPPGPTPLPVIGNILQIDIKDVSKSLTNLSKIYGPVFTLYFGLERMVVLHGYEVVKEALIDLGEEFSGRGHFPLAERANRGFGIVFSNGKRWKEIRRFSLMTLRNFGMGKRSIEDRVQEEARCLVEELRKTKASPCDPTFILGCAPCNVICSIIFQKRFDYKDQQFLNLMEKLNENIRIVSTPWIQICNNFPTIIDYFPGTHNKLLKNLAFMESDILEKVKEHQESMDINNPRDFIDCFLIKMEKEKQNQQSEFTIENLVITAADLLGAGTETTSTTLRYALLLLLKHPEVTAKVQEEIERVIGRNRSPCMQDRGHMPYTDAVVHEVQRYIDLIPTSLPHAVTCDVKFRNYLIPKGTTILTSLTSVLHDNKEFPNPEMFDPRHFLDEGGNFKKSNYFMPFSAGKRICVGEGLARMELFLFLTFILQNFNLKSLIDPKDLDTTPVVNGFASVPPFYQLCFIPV

[3] = viability of PTEN-deleted HCT116 cells – cell-based, HCT116 PTEN knockout, dose response (AID 1047); type: functional;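 further: HCT116 colon tumor cells with PTEN knocked out; cells exposed to compound for 60 hours before readout; potency for loss of cell viability measured by luminescence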
[4] = viability of HCT116 lacking mutant beta-catenin – cell-based, human colon tumor, dose response (AID 1045); type: functional;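 further: HCT116 colon tumor cells with beta catenin knocked out; cells exposed to compound for 60 hours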
[5] = HEK-293T viability loss after treatment – luminescence, T-cell screen hits, cytotoxicity control for TCR NF-kB inhibitor project, dose response (AID 489026); type: functional, cell-based;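 further: cells exposed to compound about 14 hours before the viability readout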
[6] = blockers of HIV-1 envelope-mediated cell-cell fusion – cherry-pick, dose response (AID 652057); type: functional, cell-based
[7] = HIV-1 AD8 envelope cell-cell fusion blockers – cherry-pick, dose response (AID 652062); type: functional, cell-based;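 further: luciferase signal from cell-cell fusion driven by HIV-1 clade B AD8 Env; potency is for inhibitors of fusion seen as a drop in luminescence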
[8] = growth inhibition of yeast DHODH-expressing 3D7 parasites – SYBR Green, dry powder samples, dose response (AID 1159570); type: functional, cell-based;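 further: parasite growth measured after 72 hours of compound exposure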
[9] = P. falciparum Dd2 growth inhibitors, dose response, SYBR Green, cherry-picked samples (AID 1159567); type: functional, cell-based
[10] = Dd2 malaria parasite growth inhibition potency – SYBR Green, dry powder samples, dose response (AID 1159566); type: functional, cell-based;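 further: potency for growth inhibition with lower SYBR green DNA signal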
[11] = growth inhibition of PfATP4-mutant resistant parasites – NITD609-resistant line, SYBR Green, dry powder, dose response (AID 1159571); type: functional, cell-based;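 further: parasites synchronized at ring stage by sorbitol before testing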
[12] = A549 cell cytotoxicity, dose response, cytotoxicity control, plate reader, cherry-pick, antagonist series (AID 743412); type: functional, cell-based
[13] = blockers of bursicon-stimulated LGR2 cAMP reporter – cell-based, HEK293, CRE-luciferase reporter, cherry pick, set 2, dose response (AID 743343); type: functional;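 further: transfected cells were stimulated with diluted bursicon conditioned medium after compound addition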
[14] = blockade of melanocortin 4 receptor signaling – cell-based, plate reader, cherry pick, counter-screen for LGR2 antagonist project, dose response (AID 743444); type: functional;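 further: transfected HEK 293 cells stimulated with alpha-MSH peptide; potency of inhibitors of the alpha-MSH evoked signal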

## C[C@@H]1CN([C@@H](C)CO)C(=O)c2cccc(NC(=O)c3ccc(-c4nccs4)cc3)c2O[C@H]1CN(C)CC1CC1
[1]
  AC50: 40.2 µM (active)

## Cc1ccc(-n2c(SCC(=O)NCc3ccco3)nc3sc4c(c3c2=O)CC(C)(C)SC4)cc1
[2]
  CC50: > 40 µM (active)
Cytochrome P450 2C19
  AC50: 8.91 µM (inconclusive)

## COCc1nnc(NC(=O)c2ccc(S(=O)(=O)N(C)c3ccccc3)cc2)o1
[2]
  CC50: 18.6 µM (active)
[3]
  EC50: 20.6 µM (active)
[4]
  EC50: 18.3 µM (active)

## COc1cc(C(=O)Nc2ccc3c(c2)CCN3C(C)=O)cc(OC)c1OC
[5]
  IC50: > 80 µM (inactive)

## CCCC[C@@H](C)C[C@@H](C)C(=O)N(C)[C@@H](CC(C)C)C(=O)N[C@H](C(=O)N(C)[C@H](C(=O)N1C[C@@H](O)C[C@H]1C(=O)N1C(=O)C=C[C@@H]1C)C(C)C)C(C)OC(C)=O (some centres not stated)
[5]
  IC50: 18.6 µM (active)

## CC1CCCN(S(=O)(=O)c2ccc(C(=O)Nc3nnc(-c4ccncc4)o3)cc2)C1 (configuration not stated)
[2]
  CC50: 12.7 µM (active)

## COc1ccc(C(=O)Nc2ccccc2C(=O)NC(C(=O)NCc2ccco2)C(C)C)cc1 (configuration not stated)
[2]
  CC50: 16.9 µM (active)
[3]
  EC50: 4.63 µM (active)
[4]
  EC50: 8.16 µM (active)

## COc1ccc(S(=O)(=O)Nc2ccc3c(c2)CC(=O)N([C@H](C)CO)C[C@H](C)[C@H](CN(C)S(=O)(=O)c2ccc(C)cc2)O3)cc1
[6]
  AC50: < 0.26 µM (active)
[1]
  AC50: 0.33 µM (active)
[7]
  AC50: 1.01 µM (active)
[8]
  AC50: 1.89 µM (active)
[9]
  AC50: 1.89 µM (active)
[10]
  AC50: 1.88 µM (active)
[11]
  AC50: 1.6 µM (active)

## Cc1ccc(S(=O)(=O)N2CCCCC2)cc1NC(=O)c1ccc2c(=O)n3c(nc2c1)CCCCC3
[12]
  AC50: 26.8 µM (active)
[13]
  AC50: 12.8 µM (active)
[14]
  AC50: 12.4 µM (active)
